Source: patent US20110144374A1, “OXIME ETHER DERIVATIVE AND FUNGICIDE FOR AGRICULTURE AND HORTICULTURE” (Nippon Soda Co., Ltd., priority 2008, published 2011)

melting point [°C] | Structure (SMILES)
104 to 105 | COC(=O)NOc1cc(/C(C)=N/OCc2cccc(F)c2C(F)(F)F)ccc1Cl [Compound 1-13, N-(2-chloro-5-{1-[3-fluoro-2-(trifluoromethyl)benzyloxyimino]ethyl}phenoxy)methyl carbamate]
82 to 85 | COC(=O)NOc1cc(/C(C)=N/OCc2ccccc2C(F)(F)F)ccc1C [Compound 21-24, N-{2-methyl-5-[1-(2-trifluoromethylbenzyloxyimino)ethyl]phenoxy}methyl carbamate]
121 to 122 | COC(=O)NOc1cc(/C(C)=N/OCc2ccccc2I)ccc1Cl [Compound 11-9, N-{2-chloro-5-[1-(2-iodobenzyloxyimino)ethyl]phenoxy}methyl carbamate]
